According to US6818407B2, “Anti-endotoxic antimicrobial cationic peptides and methods of use therfor” (priority 1998, dated 2004):
Marks after values point to notes of the source that are not given here.

Assays:
[1] = test system: RAW 264.7; experiment: Inhibition of LPS-induced TNF production by RAW 264.7 macrophage cell line; format: cell-based, murine; conditions: E. coli LPS 100 ng/ml, peptide 20 μg/ml, 6 hr; FIG. 2
Procedure: (§1) LPS (endotoxin) binding was examined by the dansyl polymyxin binding assay. All peptides bound to LPS (FIG. 1). The anti-endotoxic activity of the peptides was tested in the murine cell line RAW 264.7 which was obtained from the ATCC (ATCC #TIB-71), (Rockville, Md.). TNF induction experiments with LPS were performed as described by Kelly et al (Infect. Immun., 59:4491-6, 1991). Briefly, Dulbecco's modified Eagle medium was aspirated from RAW 264.7 cells grown overnight in 24-well tissue culture plates after seeding with 10^6 cells per ml per well and replaced with fresh medium. LPS at a final concentration of 100 ng/ml, was incubated with the cells for 6 hr. at 37° C. in 5% CO2 prior to assaying for cytokine production. At the same time as LPS addition, cationic peptides were added at a final concentration of 20 μg/ml. All assays were performed three times with similar results.
(§2) TNF was measured in cell culture supernatants and mouse serum on the basis of cytoxicity for L929 fibroblast cells. […] TNF activity was expressed in units as the reciprocal of the dilution of TNF that caused 50% cytotoxicity of L929 cells, as computed using the ELISA+program (Meddata Inc, New York, N.Y.). For the current study, one unit of TNF corresponded to 62.5 pg/ml of recombinant murine TNF (Genzyme Corp.) IL-6 production was measured by ELISA with specific antibody.

[2] = test system: RAW 264.7; experiment: Suppression of LPS-induced IL-6 production by RAW 264.7 macrophage cell line; format: cell-based, murine; conditions: LPS 100 ng/ml, peptide 20 μg/ml, 6 hr, ELISA, FIG. 3
Procedure: as §1, §2

[3] = test system: Pseudomonas aeruginosa PAO; experiment: Chronic Pseudomonas aeruginosa lung infection in rats, aerosol treatment; format: in vivo; conditions: lungs, quantitative culture; aerosol 10 ml of 5 mg/ml once daily for three days; untreated control 1.2 × 10^6
Procedure: Fifteen animals were utilized in these experiments (5 animals in each of three groups). All animals were inoculated intratracheal with 10^4 Pseudomonas aeruginosa PAO in agar beads. Three days following inoculation, rats were exposed to aerosol preparations from and Aero-Tech II nebulizer (CIS-US, Bedford, Mass.). The nebulizer was operated at 45 psi, with a flow rate of 10 L/min and contained 10 ml of the preparation to be aerosolized. The 10 ml volume was dispensed in 25-30 minutes. Animals were treated once daily for three days; control animals received daily exposure to 10 mls of 10 mM sodium citrate (pH 7.0); one treatment group received daily exposure to 10 mls of 10 mM sodium citrate (pH 7.0) containing 5 mg/ml of CM3; one treatment group received daily exposure to 10 mls of 10 mM sodium citrate (pH 7.0) containing 5 mg/ml of Cpα2. Animals were sacrificed on day 3, at one hour following the last exposure. The lungs of the treatment and control animals were removed for quantitative culture.

[4] = test system: P. aeruginosa efflux mutant (Nal B, H744); experiment: microbe, parasite or virus in culture; format: cell-based
[5] = test system: P. aeruginosa gyrase mutant (Nal A, H374); format: cell-based
Procedure: The biological activity of the peptides can be determined by standard methods known to those of skill in the art, such as Aminimal inhibitory concentration (MIC)≅ assay described in the present examples, whereby the lowest concentration at which no change in OD is observed for a given period of time is recorded as MIC. Alternatively, Afractional inhibitory concentration (FIC)≅ is also useful for determination of synergy between the peptides of the invention, or the peptides in combination with known antibiotics. FICs are performed by checkerboard titrations of peptides in one dimension of a microtiter plate, and of antibiotics in the other dimension, for example. The FIC is calculated by looking at the impact of one antibiotic on the MIC of the other and vice versa. […] Preferably, an FIC of less than 0.5 is obtained for synergism. As used herein, FIC can be determined as follows: [formula]
To test whether the peptides of the invention synergize with various antibiotics, the following method was employed. Fractional Inhibitory Concentration (FIC) was used to determine synergy of peptides combined with antibiotics (e.g., carbenicillin/ciprofloxacin) against Pseudomonas aeruginosa. The following methodology was followed:
(1) Determination of MIC of cationic peptides (MIC A):
100 μl Mueller Hinton broth (MHB) was added per well
12.5 μl of 10× test concentration peptide was added per well to get final peptide concentration of e.g., 128, 64, 32, . . . 0.025 μg/ml from row 1 to 11;
10 μl of 10^−4 dilution of overnight bacterial culture was added per well.
(2) Determination of MIC of Carbenicillin/Ciprofloxacin (MIC B):
100 μl MHB was added per well;
100 μl of 2× test concentration of antibiotic was added in the first well of the row, and doubling dilutions performed across the plate from column 1 to 11;
(3) Determination of MIC of antibiotics (B) when combined with peptides at concentration A:
100 μl Carbenicillin (512 μg/ml) or Ciprofloxacin (8 μg/ml) was added in each well of column 1; doubling dilutions were performed across the plate;
100 μl of the peptide was added in all wells of row 1, mixed, and 100 μl withdrawn and added to row 2, etc., creating a checkerboard titration.
10 μl of 10^−4 dilution of overnight culture was added per well;
plates were incubated at 37EC for 18-24 hours. Combination MIC values A and B were taken as the lowest concentration of drug that reduced bacterial growth by more than 50% in any given column.
(4) FIC index=FICA+FICB=(A)/MIC A+(B)/MIC B. An FIC index of approximately 0.5 or less indicates synergy; 1.0 reflects additivity; and >1.0 indicates antagonism.

Structure (SMILES): CC[C@H](C)[C@H](NC(=O)CNC(=O)[C@@H](NC(=O)[C@H](CCCCN)NC(=O)[C@H](CCCCN)NC(=O)[C@H](Cc1ccccc1)NC(=O)[C@H](CC(C)C)NC(=O)[C@H](CCCCN)NC(=O)[C@H](Cc1c[nH]c2ccccc12)NC(=O)[C@@H](N)CCCCN)[C@@H](C)CC)C(=O)NCC(=O)N[C@@H](C)C(=O)N[C@H](C(=O)N[C@@H](CC(C)C)C(=O)N[C@@H](CCCCN)C(=O)N[C@H](C(=O)N[C@@H](CC(C)C)C(=O)N[C@@H](CCCCN)C(=O)N[C@H](C(=O)N[C@@H](CC(C)C)C(=O)N[C@H](C(=O)N[C@H](C(=O)NCC(=O)N[C@@H](CC(C)C)C(=O)N1CCC[C@H]1C(=O)N[C@@H](C)C(=O)N[C@@H](CC(C)C)C(=O)N[C@@H](CCCCN)C(=O)N[C@@H](CC(C)C)C(=O)N[C@H](C(=O)N[C@@H](CC(C)C)C(=O)N[C@@H](CCCCN)C(=O)O)[C@@H](C)O)[C@@H](C)O)[C@@H](C)O)C(C)C)C(C)C)C(C)C [CM4]
- Inhibition of TNF production (neutralization of endotoxin) [1]: clearly better than others

Structure (SMILES): CC[C@H](C)[C@H](NC(=O)CNC(=O)[C@@H](NC(=O)[C@H](CCCCN)NC(=O)[C@H](CCCCN)NC(=O)[C@H](Cc1ccccc1)NC(=O)[C@H](CC(C)C)NC(=O)[C@H](CCCCN)NC(=O)[C@H](Cc1c[nH]c2ccccc12)NC(=O)[C@H](CC(C)C)NC(=O)[C@@H](N)CCCCN)[C@@H](C)CC)C(=O)NCC(=O)N[C@@H](C)C(=O)N[C@H](C(=O)N[C@@H](CC(C)C)C(=O)N[C@@H](CCCCN)C(=O)N[C@H](C(=O)N[C@@H](CC(C)C)C(=O)N[C@@H](CCCCN)C(=O)N[C@H](C(=O)N[C@@H](CC(C)C)C(=O)N[C@H](C(=O)N[C@H](C(=O)NCC(=O)N[C@@H](CC(C)C)C(=O)N1CCC[C@H]1C(=O)N[C@@H](C)C(=O)N[C@@H](CC(C)C)C(=O)N[C@@H](CCCCN)C(=O)N[C@@H](CC(C)C)C(=O)N[C@H](C(=O)N[C@@H](CC(C)C)C(=O)N[C@@H](CCCCN)C(=O)O)[C@@H](C)O)[C@@H](C)O)[C@@H](C)O)C(C)C)C(C)C)C(C)C [CM7]
- Suppression of IL-6 production [2]: clearly superior in their ability to suppress IL-6 production

Structure (SMILES): CC[C@H](C)[C@H](NC(=O)CNC(=O)[C@@H](NC(=O)[C@H](CCCCN)NC(=O)[C@H](CCCCN)NC(=O)[C@@H](NC(=O)[C@H](Cc1ccccc1)NC(=O)[C@H](CCCCN)NC(=O)[C@H](CCCCN)NC(=O)[C@H](Cc1c[nH]c2ccccc12)NC(=O)[C@@H](N)CCCCN)[C@@H](C)CC)[C@@H](C)CC)C(=O)NCC(=O)N[C@@H](C)C(=O)N[C@H](C(=O)N[C@@H](CC(C)C)C(=O)N[C@@H](CCCCN)C(=O)N[C@H](C(=O)N[C@@H](CC(C)C)C(=O)N[C@H](C(=O)N[C@H](C(=O)NCC(=O)N[C@@H](CC(C)C)C(=O)N1CCC[C@H]1C(=O)N[C@@H](C)C(=O)N[C@@H](CC(C)C)C(=O)N[C@@H](CCCCN)C(=O)N[C@@H](CC(C)C)C(=O)N[C@H](C(=O)N[C@@H](CCCCN)C(=O)N[C@@H](CCCCN)C(=O)O)[C@@H](C)O)[C@@H](C)O)[C@@H](C)O)C(C)C)C(C)C [CPα2]
- Mean Colony Forming Units +/− S.D. [3]: 6.8 × 10^4 +/− 3.6 × 10^4* CFU
- (B) MIC of Nal when combined with peptide ([4]; nalidixic acid with peptide at concentration (A), efflux mutant Nal B, H744, unit from method): 800 µg/mL
- FIC index ([4]; peptide + nalidixic acid, efflux mutant Nal B, H744): 0.63
- MIC A MIC of Peptides ([4]; peptide alone, P. aeruginosa efflux mutant Nal B, H744 (Table 6)): 4 µg/mL
- (A) Peptide doses together with Nal ([4]; peptide concentration in combination with nalidixic acid, efflux mutant Nal B, H744): 0.5 µg/mL
- Suppression of IL-6 production [2]: clearly superior in their ability to suppress IL-6 production
- Suppression of IL-6 production ([2]; listed as Cpα2): superior in their ability to suppress IL-6 production
- Inhibition of TNF production (neutralization of endotoxin) [1]: clearly better than others
- (B) MIC of Nal when combined with peptide ([5]; nalidixic acid with peptide at concentration (A), Nal A, unit from method): 800 µg/mL
- FIC index ([5]; peptide + nalidixic acid, Nal A): 0.50
- MIC A MIC of Peptides ([5]; peptide alone, P. aeruginosa gyrase mutant Nal A): 4 µg/mL
- (A) Peptide doses together with Nal ([5]; peptide concentration in combination with nalidixic acid, Nal A): 1 µg/mL
